Test results from US20110275699A1, “Treatment For Obesity And Diabetes” (University of California, priority 2010, published 2011).

Assays:
USF-1 [1] = assay: K237 acetylation of USF-1 in cells (IP and western blotting); type: cell-based; conditions: OA-treated cells vs control cells
Method: (§1) C57BL/6J male mice (Jackson laboratory) were used at 7 wks of age unless specified. For fasting/feeding experiments, mice were fasted for 40 hrs and then fed a high carbohydrate, fat-free diet for indicated time periods. HepG2 cells were grown in DMEM supplemented with 10% fetal bovine serum and 100 units/ml penicillin/streptomycin. M059J and M059K were from ATCC and grown in the same medium containing 4 mg/ml glutamine. HepG2 cells were maintained in serum free media overnight prior to insulin treatment. For insulin treatment, HepG2 cells were treated with 100 nM insulin or DMSO for 30 min. 293FT cells in DMEM supplemented with 10% fetal bovine serum and 100 units/ml penicillin/streptomycin/neomycin or 293F cells in 293 Freestyle medium were transfected with expression constructs or siRNA (Santa Cruz) using lipofectamine 2000 (Invitrogen) or 293 Fectin (Invitrogen), respectively. […]
Since USF-1 is both phosphorylated and acetylated at nearby sites and these posttranslational modifications are critical for USF-1 function in FAS promoter activation, we tested whether an increase in S262 phosphorylation of USF-1 could affect K237 acetylation. […] Conversely, we detected a significant level of K237 acetylation of USF-1 in control cells, which was reduced in OA-treated cells (FIG. 5B, left panel, lane 2). […]

DNA-PK [2] = assay: DNA-PK phosphorylation in treated 293 cells (western blotting); type: cell-based; conditions: 2 hrs
Method: as §1, with “respectively. 293 cells were treated with either control DMSO or OA at 1 uM and Taut at indicated concentrations for 2 hrs.” for “respectively.”
(§2) Therefore, Applicants tested the S262 phosphorylation status of USF-1 upon treatment with okadaic acid (OA), which is known to prevent dephosphorylation of DNA-PK (Douglas et al., 2001). […] Similarly, PP1 was not detected in nuclear extracts from control HepG2 cells but was increased upon insulin treatment (FIG. 3H, right panel). […]

USF-1 [3] = assay: S262 phosphorylation of USF-1 in 293 cells (IP and western blotting); type: cell-based; conditions: 2 hrs
Method: as §1, with “respectively. 293 cells were treated with either control DMSO or OA at 1 uM and Taut at indicated concentrations for 2 hrs. Expression vectors for DNA-PK and mutants, HAT, HDAC9, PP1, Kus and −0.7 p53-Luc were from laboratories of Drs. Meek, Kouzarides, Zelent, Lamond, Shay and Oren respectively. siRNA for knockdown of DNA-PK is commercially available at Santa Cruz Biotechnology Inc.” for “respectively.”
Next S262 phosphorylation of USF-1 by DNA-PK in cultured cells was tested. […] Applicants detected higher S262 phosphorylation of USF-1 immunoprecipitated from cells overexpressing WT DNA-PK (FIG. 3B, left panel, lane 2), but not from cells expressing DNA-PK with T3950D mutation (FIG. 3B, lane 3) or control cells (FIG. 3B, lane 1). Furthermore, Applicants detected even higher S262 phosphorylation of USF-1 from cells expressing DNAPK with T3950A mutation compared to WT DNA-PK-expressing cells (FIG. 3B, middle panel, lane 3). […] WT USF-1, but not USF-1 containing S262A mutation, was detected to have higher phosphorylation upon cotransfection with DNA-PK (FIG. 3B, right panel, lanes 2 and 3). […]

USF-1 [4] = assay: USF-1 modifications in M059K cells containing WT DNA-PK; type: cell-based, human; conditions: insulin 100 nM 30 min
Method: as §1, with “respectively. 293 cells were treated with either control DMSO or OA at 1 uM and Taut at indicated concentrations for 2 hrs. Expression vectors for DNA-PK and mutants, HAT, HDAC9, PP1, Kus and −0.7 p53-Luc were from laboratories of Drs. Meek, Kouzarides, Zelent, Lamond, Shay and Oren respectively. siRNA for knockdown of DNA-PK is commercially available at Santa Cruz Biotechnology Inc.” for “respectively.”

USF-1 [5] = assay: USF-1 modifications in M059J cells lacking DNA-PKcs; type: cell-based, human; conditions: insulin 100 nM 30 min
Method: as §1, with “respectively. 293 cells were treated with either control DMSO or OA at 1 uM and Taut at indicated concentrations for 2 hrs. Expression vectors for DNA-PK and mutants, HAT, HDAC9, PP1, Kus and −0.7 p53-Luc were from laboratories of Drs. Meek, Kouzarides, Zelent, Lamond, Shay and Oren respectively. siRNA for knockdown of DNA-PK is commercially available at Santa Cruz Biotechnology Inc.” for “respectively.”

PP1 = PP1 in nuclear extracts of HepG2 cells; type: cell-based; conditions: insulin treatment vs control
Method: as §1, with “respectively. 293 cells were treated with either control DMSO or OA at 1 uM and Taut at indicated concentrations for 2 hrs.” for “respectively.”
as §2

USF-1 [6] = assay: USF-1 S262 phosphorylation/K237 acetylation in HepG2 cells with or without insulin; type: cell-based; conditions: HepG2, control siRNA-transfected cells, insulin 100 nM 30 min
Method: as §1, with “respectively. 293 cells were treated with either control DMSO or OA at 1 uM and Taut at indicated concentrations for 2 hrs. Expression vectors for DNA-PK and mutants, HAT, HDAC9, PP1, Kus and −0.7 p53-Luc were from laboratories of Drs. Meek, Kouzarides, Zelent, Lamond, Shay and Oren respectively. siRNA for knockdown of DNA-PK is commercially available at Santa Cruz Biotechnology Inc.” for “respectively.”

DNA-PK [7] = assay: DNA-PK phosphorylation in HepG2 cells with or without insulin; type: cell-based; conditions: insulin-treated HepG2 cells vs noninsulin-treated cells
Method: as §1, with “respectively. 293 cells were treated with either control DMSO or OA at 1 uM and Taut at indicated concentrations for 2 hrs. Expression vectors for DNA-PK and mutants, HAT, HDAC9, PP1, Kus and −0.7 p53-Luc were from laboratories of Drs.” for “respectively.”
DNA-PK activity is known to be regulated by phosphorylation/dephosphorylation, independent of its activation by DNA. […] DNA-PK phosphorylation was detected using phosphoserine/threonine antibodies that detect autophosphorylation at the S/TQ motifs of DNA-PK.

USF-1 [8] = assay: USF-1 interaction (IP) and recruitment of proteins to the FAS promoter (ChIP) in 293 cells; type: cell-based; conditions: Taut at indicated concentrations for 2 hrs
Method: as §1, with “respectively. 293 cells were treated with either control DMSO or OA at 1 uM and Taut at indicated concentrations for 2 hrs. Expression vectors for DNA-PK and mutants, HAT, HDAC9, PP1, Kus and −0.7 p53-Luc were from laboratories of Drs.” for “respectively.”
Livers from fasted or fed mice were fixed with DSG at 2 mM for 45 min at RT before formaldehyde cross-linking Soluble chromatin was quantified by absorbance at 260 nm, and equivalent amounts of input DNA were immunoprecipitated. […]

Compound: C=C1[C@@H](O)[C@@H]2O[C@]3(CC[C@H](/C=C/[C@@H](C)[C@@H]4CC(C)=C[C@@]5(O[C@H](C[C@@](C)(O)C(=O)O)CC[C@H]5O)O4)O3)CC[C@H]2O[C@@H]1[C@@H](O)C[C@H](C)[C@H]1O[C@@]2(CCCCO2)CC[C@H]1C [OA, okadaic acid]
- K237 acetylation of USF-1 (USF-1 [1]): reduced
- phosphorylation of DNA-PK (DNA-PK [2]; OA 1 uM, vs control DMSO): greatly increased
- S262 phosphorylation of USF-1 (USF-1 [3]; OA 1 uM, vs control DMSO): hardly detectable

Compound: insulin
- K237 acetylation of USF-1 (USF-1 [4]): increased
- S262 phosphorylation of USF-1 (USF-1 [4]): increased
- USF modifications (S262 phosphorylation, K237 acetylation) (USF-1 [5]): did not result in any significant increase
- PP1 in nuclear extracts (PP1): increased
- K237 acetylation of USF-1 (USF-1 [6]): markedly increased
- S262 phosphorylation of USF-1 (USF-1 [6]): markedly increased
- DNA-PK phosphorylation (DNA-PK [7]): not detectable

Compound: CO[C@H]([C@H](O)CC(=O)[C@@H](C)[C@@H](O)CC[C@@H](C)[C@@H]1O[C@]2(CC[C@@H](C)[C@H](CC[C@H](C)C(C)=O)O2)CC[C@@H]1C)[C@H](OC(=O)C[C@@H](O)C1=C(C)C(=O)OC1=O)C(C)C [Taut, tautomycin]
- phosphorylated DNA-PK (DNA-PK [2]; Taut 1 uM, vs control cells): easily detected
- S262 phosphorylation of USF-1 (USF-1 [3]; Taut 10 nM): decreased
- S262 phosphorylation of USF-1 (USF-1 [3]; Taut 1 uM): hardly detectable
- USF-1 interaction and recruitment of various proteins (USF-1 [8]): abolished
